Laboratory results as given in US8604053B2, “TRPV1 antagonists” (AbbVie Inc., priority 2008, dated 2013).

How the values were obtained:
[1] = Rat telemetry protocol, core body temperature; format: in vivo; conditions: core body temperature of rats one hour post dosing, 100 μmol/kg p.o., relative to vehicle
Method in brief: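 Male Sprague Dawley rats (225–250 g) with intraperitoneal telemetry transmitters, 2-week recovery. Single oral 100 μmol/kg dose in 10% EtOH/20% Tween-80/70% PEG-400; core body temperature recorded every 15 min over 24 h.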

CYP2D6 = target: T1, CYP2D6 (Homo sapiens, UniProt P10635); experiment: in vitro; format: in vitro ADME; conditions: microsomes; for inhibition at 25 min, 2.2 µM: human, pH 7.4
T1 construct: human liver microsomes (BD Gentest); tissue BD Gentest; host or cells: human liver microsomes
T1 sequence (P10635 whole entry): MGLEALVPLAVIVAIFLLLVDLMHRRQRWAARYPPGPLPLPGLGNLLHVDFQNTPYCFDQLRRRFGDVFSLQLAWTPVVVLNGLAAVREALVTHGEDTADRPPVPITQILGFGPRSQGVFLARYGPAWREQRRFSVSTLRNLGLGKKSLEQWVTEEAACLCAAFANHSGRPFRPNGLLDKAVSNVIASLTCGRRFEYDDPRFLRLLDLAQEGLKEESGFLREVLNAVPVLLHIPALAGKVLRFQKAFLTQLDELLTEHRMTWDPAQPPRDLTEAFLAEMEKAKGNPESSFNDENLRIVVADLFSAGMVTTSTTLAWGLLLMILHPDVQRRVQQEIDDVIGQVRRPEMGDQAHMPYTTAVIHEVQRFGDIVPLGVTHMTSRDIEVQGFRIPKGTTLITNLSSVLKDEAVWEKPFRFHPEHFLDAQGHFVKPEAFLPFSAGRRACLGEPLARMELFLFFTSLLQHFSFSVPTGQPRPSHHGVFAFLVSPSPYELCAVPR
Procedure: Stock solutions of test compounds were assayed in 96-well format for their ability to inhibit CYP2C9, CYP2D6, or CYP3A4 mediated metabolism of test substrates. Luciferin-H was used as the substrate for CYP2C9; 3-[2-(N,N-diethyl-N-methylammonium)ethyl]-7-methoxy-4-methylcoumarin (AMMC) was used as the substrate for CYP2D6; 7-benzyloxyquiniline (BZQ) was used as the substrate for CYP3A4. For each subtype, positive controls (sulphaphenazole in the case of CYP2C9; quinidine in the case of CYP2D6, ketoconazole in the case of CYP3A4) were used to validate assay results run in duplicate.
Pre-Incubation Mixture Preparation for CYP2C9 and CYP2D6: A pre-incubation mixture was prepared by combining 100 mM phosphate buffer (9.12 mL; pH 7.4), human liver microsomes (BD Gentest, 240 itt; final concentration: 0.4 mg/mL), and 10 mM nicotinamide adenine dinucleotide phosphate in 65.4 mM MgCl2 hexahydrate (120 μL; final concentration: 125 μM and 818 μM, respectively). To this was mixture is added a ‘regeneration’ mixture (120 μL) of 333 mM glucose-6-phosphate and 40 U/mL glucose-6-phosphate dehydrogenase in 5 mM sodium citrate (final concentration: 4 mM, 0.5 U/mL, and 0.06 mM, respectively).
Substrate Mixture Preparation for CYP2D6: To a solution of 100 mM phosphate buffer, (2.80 mL, pH 7.4) was added 10 mM AMMC in acetonitrile (14 itt; final solution concentration 0.05 mM, final assay concentration 10 μM).
(§1) CYP2D6 Inhibiton Assay: To each well in the assay plate containing varying concentrations of test compound or control compound in DMSO (10 μL), Pre-Incubation Mixture (40 μL) was added to the wells and the assay plate was pre-incubated for 10 minutes at 37° C., with shaking or rocking. A pre-read of each well was performed at 390 nm and 460 nm extinction/emission. CYP2D6 Substrate Mixture (10 μL) was added to all wells and the assay plate was incubated for an additional […] at 37° C., with shaking or rocking. Final DMSO concentration was 1%. A post-read of each well was then performed at 390 nm and 460 nm extinction/emission.

CYP3A4 = target: T2, CYP3A4 (Homo sapiens, UniProt P08684); experiment: CYP3A4 inhibition assay; format: in vitro ADME; conditions: human liver microsomes, substrate BZQ; for inhibition at 25 min, 2.2 µM: pH 7.4, probe 7-benzyloxyquiniline (BZQ), 50 μM final, read-out: CYP3A4 % inh @ 2.2 μM
T2 construct: human liver microsomes (BD Gentest, 450 μL; final concentration: 0.4 mg/mL); tissue BD Gentest; host or cells: human liver microsomes
T2 sequence (P08684 whole entry): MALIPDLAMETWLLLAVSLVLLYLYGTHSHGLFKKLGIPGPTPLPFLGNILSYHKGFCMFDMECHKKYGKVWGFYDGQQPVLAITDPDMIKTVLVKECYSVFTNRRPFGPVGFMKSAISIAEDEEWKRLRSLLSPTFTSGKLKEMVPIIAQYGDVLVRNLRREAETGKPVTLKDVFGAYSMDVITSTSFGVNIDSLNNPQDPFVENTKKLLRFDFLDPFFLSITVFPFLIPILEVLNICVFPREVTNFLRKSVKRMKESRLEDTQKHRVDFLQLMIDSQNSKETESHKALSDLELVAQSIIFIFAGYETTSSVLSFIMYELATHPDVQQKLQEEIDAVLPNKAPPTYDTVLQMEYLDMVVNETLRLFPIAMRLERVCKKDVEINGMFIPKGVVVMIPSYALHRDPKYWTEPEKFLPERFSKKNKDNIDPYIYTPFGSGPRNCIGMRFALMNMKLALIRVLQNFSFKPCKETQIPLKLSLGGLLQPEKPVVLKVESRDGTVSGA
Procedure: Luciferin-H was used as the substrate for CYP2C9; 3-[2-(N,N-diethyl-N-methylammonium)ethyl]-7-methoxy-4-methylcoumarin (AMMC) was used as the substrate for CYP2D6; 7-benzyloxyquiniline (BZQ) was used as the substrate for CYP3A4.
Pre-Incubation Mixture Preparation for CYP3A4: A pre-incubation mixture was prepared by combining 100 mM phosphate buffer (19.35 mL; pH 7.4), human liver microsomes (BD Gentest, 450 μL; final concentration: 0.4 mg/mL), and 10 mM nicotinamide adenine dinucleotide phosphate in 65.4 mM MgCl2 hexahydrate (225 μL; final concentration: 100 μM and 654 μM, respectively). To this was mixture was added a ‘regeneration’ mixture (225 μL) of 333 mM glucose-6-phosphate and 40 U/mL glucose-6-phosphate dehydrogenase in 5 mM sodium citrate (final concentration: 3.3 mM, 0.4 U/mL, and 0.05 mM, respectively).
Substrate Mixture Preparation for CYP3A4: To a solution of 100 mM phosphate buffer, (2.36 mL, pH 7.4) was added 30 mM BZQ in acetonitrile (40 μL; final solution concentration 0.5 mM, final assay concentration 50 μM).
as §1, with “CYP3A4” for “CYP2D6”, “μL), CYP3A4” for “μL),”, “(90” for “(40”, “405” for “390”, “535” for “460”

Compound	Δ Temp (° C.) [1] [°C]	inhibition at 25 min, 2.2 µM (CYP2D6) [%]	inhibition at 25 min, 2.2 µM (CYP3A4) [%]	CYP2D6 % inh @ 2.2 μM) (CYP2D6; 2.2 µM) [%]	CYP3A4 % inh @ 2.2 μM (CYP3A4) [%]
CCCC1(CCC)C[C@@H](NC(=O)Nc2cccc3cnc(C)cc23)c2cccc(F)c2O1 [Example 68, N-[(4R)-8-fluoro-2,2-dipropyl-3,4-dihydro-2H-chromen-4-yl]-N′-(3-methylisoquinolin-5-yl)urea]	0.1	0	6.4		
CCC1(CC)C[C@@H](NC(=O)Nc2cccc3cnc(C)cc23)c2ccc(Cl)cc2O1 [Example 69, N-[(4R)-7-chloro-2,2-diethyl-3,4-dihydro-2H-chromen-4-yl]-N′-(3-methylisoquinolin-5-yl)urea]	0.1	0	0		
CCC1(CC)C[C@@H](NC(=O)Nc2cccc3cnc(Cl)cc23)c2cccc(F)c2O1 [Example 81, N-(3-chloroisoquinolin-5-yl)-N′-[(4R)-2,2-diethyl-8-fluoro-3,4-dihydro-2H-chromen-4-yl]urea]	−0.5	0.68	0		
Cc1cc2c(NC(=O)N[C@@H]3CC(CF)(CF)Oc4c(F)cccc43)cccc2cn1 [Example 85, N-[(4R)-8-fluoro-2,2-bis(fluoromethyl)-3,4-dihydro-2H-chromen-4-yl]-N′-(3-methylisoquinolin-5-yl)urea]	0.2	10	0		
Cc1cc2c(NC(=O)N[C@@H]3CC(CF)(CF)Oc4c(OC(F)(F)F)cccc43)cccc2cn1 [Example 87, N-[(4R)-2,2-bis(fluoromethyl)-8-(trifluoromethoxy)-3,4-dihydro-2H-chromen-4-yl]-N′-(3-methylisoquinolin-5-yl)urea]	−2.0	9	0		
Cc1cc2c(NC(=O)N[C@@H]3CC(CF)(CF)Oc4c(Cl)cccc43)cccc2cn1 [Example 91, N-[(4R)-8-chloro-2,2-bis(fluoromethyl)-3,4-dihydro-2H-chromen-4-yl]-N′-(3-methylisoquinolin-5-yl)urea]	−0.1	19	3.8		
Cc1cc2c(NC(=O)N[C@@H]3CC(C)(C)Oc4c(OC(F)(F)F)cccc43)cccc2cn1 [Example 94, N-[(4R)-2,2-dimethyl-8-(trifluoromethoxy)-3,4-dihydro-2H-chromen-4-yl]-N′-(3-methylisoquinolin-5-yl)urea]	−2.0	16	0		
Cc1cc2c(NC(=O)N[C@@H]3CC(C)(C)Oc4cc(F)ccc43)cccc2cn1 [Example 95, N-[(4R)-7-fluoro-2,2-dimethyl-3,4-dihydro-2H-chromen-4-yl]-N′-(3-methylisoquinolin-5-yl)urea]	0.0	3.5	0		
Cc1cc2c(NC(=O)N[C@@H]3CC(CF)(CF)Oc4cc(F)ccc43)cccc2cn1 [Example 96, N-[(4R)-7-fluoro-2,2-bis(fluoromethyl)-3,4-dihydro-2H-chromen-4-yl]-N′-(3-methylisoquinolin-5-yl)urea]	0.0	7.9	0		
Cc1cc2c(NC(=O)N[C@@H]3CC(C)(C)Oc4cc(Cl)ccc43)cccc2cn1 [Example 97, N-[(4R)-7-chloro-2,2-dimethyl-3,4-dihydro-2H-chromen-4-yl]-N′-(3-methylisoquinolin-5-yl)urea]	0.4	19	0		
Cc1cc2c(NC(=O)N[C@@H]3CC(C)(C)Oc4c3ccc(F)c4Cl)cccc2cn1 [Example 110, N-[(4R)-8-chloro-7-fluoro-2,2-dimethyl-3,4-dihydro-2H-chromen-4-yl]-N′-(3-methylisoquinolin-5-yl)urea]	−1.1	1.4	0.25		
Cc1cc2c(NC(=O)N[C@@H]3CC(C)(C)Oc4c3ccc(F)c4F)cccc2cn1 [Example 113, N-[(4R)-7,8-difluoro-2,2-dimethyl-3,4-dihydro-2H-chromen-4-yl]-N′-(3-methylisoquinolin-5-yl)urea]	0.0	0	9		
Cc1cc2c(NC(=O)N[C@@H]3CC(C)(C)Oc4cc(C(F)(F)F)ccc43)cccc2cn1 [Example 118, N-[(4R)-2,2-dimethyl-7-(trifluoromethyl)-3,4-dihydro-2H-chromen-4-yl]-N′-(3-methylisoquinolin-5-yl)urea]	0.0	21	0		
Cc1cc2c(NC(=O)N[C@@H]3CC(C)(C)Oc4c(F)cccc43)cccc2cn1 [Example 119, N-[(4R)-8-fluoro-2,2-dimethyl-3,4-dihydro-2H-chromen-4-yl]-N′-(3-methylisoquinolin-5-yl)urea]	0.0	8.7	0		
Cc1cc2c(NC(=O)N[C@@H]3CC(CF)(CF)Oc4c(F)cc(F)cc43)cccc2cn1 [Example 120, N-[(4R)-6,8-difluoro-2,2-bis(fluoromethyl)-3,4-dihydro-2H-chromen-4-yl]-N′-(3-methylisoquinolin-5-yl)urea]	−0.5	6.2	25		
Cc1cc2c(NC(=O)N[C@@H]3CC(C)(C)Oc4cc(F)ccc43)c(F)ccc2cn1 [Example 123, N-[(4R)-7-fluoro-2,2-dimethyl-3,4-dihydro-2H-chromen-4-yl]-N′-(6-fluoro-3-methylisoquinolin-5-yl)urea]	0.0	42	49		
Cc1cc2c(NC(=O)N[C@@H]3C[C@](C)(CF)Oc4c(F)cccc43)cccc2cn1 [Example 126, N-[(2R,4R)-8-fluoro-2-(fluoromethyl)-2-methyl-3,4-dihydro-2H-chromen-4-yl]-N′-(3-methylisoquinolin-5-yl)urea]	0.0	0	11		
Cc1cc2c(NC(=O)N[C@@H]3C[C@@](C)(CF)Oc4c(F)cccc43)cccc2cn1 [Example 128, N-[(2S,4R)-8-fluoro-2-(fluoromethyl)-2-methyl-3,4-dihydro-2H-chromen-4-yl]-N′-(3-methylisoquinolin-5-yl)urea]	−0.1	0.23	0		
N-[(4R)-2,2-diethyl-6-fluoro-3,4-dihydro-2H-chromen-4-yl]-N-(3-methylisoquinolin-5-yl)urea [Example 56]	0.2			14	17
